Where two headings read alike, the source gives them in different places.
Tests used:
human Nav1.5 (WT) [1] = molecular target: T1, human Nav1.5 (WT) (Homo sapiens, UniProt Q14524); conditions: for Effect on peak-INa: over a range of concentrations
human Nav1.5 (WT) [2] = molecular target: T1, human Nav1.5 (WT); assay: cell-based
[3] = tested on: cardiac sodium current (peak, total, late-INa) in sham cardiomyocytes; assay: Whole-cell patch-clamp of sodium currents in cardiomyocytes from sham-operated mice; format: cell-based, mouse; conditions: 10 µmol/L
Protocol: (§1) Male C57BL/6 N mice (7 weeks of age) were obtained from Charles River Canada (St. Foy, Quebec) and housed in a temperature and humidity-controlled animal facility with a 12:12-hour light-dark cycle for a minimum of 1 week before investigation. Animals were maintained on Rodent Chow #5001 and water ad libitum. Eight-week-old mice weighing 20 to 25 g were anesthetized with a cocktail of ketamine (100 mg/kg) and xylazine (20 mg/kg) intraperitoneal and preoperative analgesia (meloxicam, 1–2 mg/kg subcutaneous). Once animals reached a surgical plane, endotracheal intubation was performed using 22-G tubing. The endotracheal tube was then connected to a ventilator (Hugo-Sachs Electronik Mini-Vent, Harvard Apparatus Canada) and ventilated at 200 to 250 µl stroke volume and 150 breaths/min. Animals were then prepared for surgery (Liquid Tears applied to eyes; chest and throat shaved and washed and topical antiseptic utilized, then draped). A vertical skin incision was made from the suprasternal notch to midsternum, and then straight blunt scissors were used to cut the sternum to the third or fourth rib. Mini-Goldstein (FST) spreaders were used to retract the ribs. The thymus was blunt-dissected and the aortic arch visualized. The transverse arch was carefully dissected free of connective tissue, and a 6/0 silk tie was passed around the arch between the innominate and left carotid arteries. A double-blunted 27-G (0.4-mm) needle was then placed alongside the arch and the tie ligated. The blunted needle was then removed to standardize the stenosis. The thymus was gently replaced, and retractors removed. Two sutures were placed in the sternum, and the skin incision was closed using 6/0 Vicryl suture continuous pattern. Sham-operated animals underwent the same procedure without banding. Animals were removed from the ventilator and left to recover in a prewarmed cage with no bedding until the “righting reflex” was achieved, and checked initially every 5 to 10 minutes for the first 60 minutes, then regularly at 20 to 30 minutes intervals for the next 2 to 3 hours. […]

[4] = tested on: cardiac sodium current (peak, total, late-INa) in TAC cardiomyocytes; assay: Whole-cell patch-clamp of sodium currents in cardiomyocytes from TAC (heart failure) mice; format: cell-based, mouse; conditions: 10 µmol/L
Protocol: as §1

human Nav1.5 R1623Q = molecular target: T2, human Nav1.5 R1623Q (Homo sapiens, UniProt Q14524, R1623Q); assay: Whole-cell patch-clamp of recombinant Nav1.5 LQT3 R1623Q mutant; format: cell-based; conditions: 10 µmol/L
T2 construct: expressed in transfected cells; host or cells: HEK293T
Protocol: (§2) The human Nav1.5 gene (SCN5A) in the pcDNA3.1(+)/C-(K)DYK vector (GenScript, Cat No. OHu18270D, USA) was cotransfected with a GFP vector into HEK293T cells using Lipofectamine 3000 (Invitrogen, Cat No. L3000001, USA). Transfected cells were seated on coverslips and used for functional studies within 48 to 72 hours. […] PCR products were cloned into XL-10 Gold Ultracompetent cells (Agilent, Cat No. 200315, USA), and DNA was isolated and purified by GeneElute Plasmid Miniprep kits (Sigma, Cat No. PLN350, USA). The presence of the desired mutations and the integrity of plasmids were then verified by DNA sequencing (The Applied Genomics Core, University of Alberta). The R1623Q LQT3 mutation in human Nav1.5 was constructed as described previously.[42]
(§3) Pipettes were pulled from borosilicate glass (World Precision Instruments, Sarasota, FL) using a P-87 micropipette puller (Sutter Instruments, Novato, CA), and the tips were fire-polished, yielding resistances of 3 to 4 MΩ. The pipette solution contained (in mmol/L) 130 CsCl, 5 NaCl, 5 TEA (tetra-ethyl ammonium chloride)-Cl, 2.5 HEPES, 1 EGTA, and 2 MgATP. The pH was adjusted to 7.2 with CsOH. The extracellular solution contained (in mmol/L) 140 NaCl, 10 HEPES, 1 CaCl2, 1.4 MgCl2, 5 KCl, and 5 glucose (pH adjusted to 7.4 with NaOH).

human Nav1.5 ΔKPQ = molecular target: T3, human Nav1.5 ΔKPQ (Homo sapiens, UniProt Q14524, DEL1505-1507); assay: Whole-cell patch-clamp of recombinant Nav1.5 LQT3 ΔKPQ mutant; format: cell-based; conditions: 10 µmol/L
T3 construct: host or cells: HEK293T
Protocol: as §2, §3

mouse cardiomyocytes = assay: Calcium transients (Fluo-4) in paced single mouse cardiac myocytes, veratridine-induced spontaneous events; format: cell-based
Protocol: Cardiomyocytes were isolated from 3- to 6-month-old male C57Bl6N mice as described above and then loaded with 1 µmol/L Fluo-4 AM for 30 to 60 minutes at room temperature before imaging with an Olympus IX83 inverted microscope. The cells were perfused with a gravity controlled, multi-channel superfusion system at a flow rate of 1.5 mL/min. Fluorescence was recorded at 20 Hz through a UPLSAPO 20X objective and an Andor iXon Ultra 897 camera after excitation at 480 nm for 9.85 ms at 5% intensity of the X-cite 120 LED Boost Excelitas light source. Cardiomyocytes were field-stimulated at 1 Hz at a current value 10% above the threshold current required to elicit contraction using a current stimulator (Warner Instruments, SIU-102) equipped with platinum electrodes submerged in the recording bath. Cardiomyocytes were selected on the basis of their typical rod-shaped morphology, the absence of unpaced calcium events, and their consistent response to field stimulation. […] Regions of interest were selected such that the cardiomyocyte resided within the boundaries of the regions of interest in both its contracted and its relaxed state. The average fluorescence intensity for the regions of interest in every frame was then analyzed. Fifty-second segments of the fluorescence intensity trace in control and treated conditions from the same cardiomyocyte were obtained. Typically, these segments were the last 50 s during the >120 s superfusion of the chosen treatment condition.

human NCX1.1 = molecular target: T4, human NCX1.1 (Homo sapiens, UniProt P32418); assay: Whole-cell patch-clamp of reverse-mode NCX1.1 current in HEK293T cells; format: cell-based; conditions: 1 µmol/L
T4 construct: expressed in transfected cells; host or cells: HEK293T
Excerpt: as §3

NLRP3 inflammasome = assay: Immunoblot of NLRP3 and TXNIP in isolated mouse hearts after ischemia-reperfusion (Langendorff)
isolated mouse hearts = assay: Postischemic functional recovery (LVDP) of isolated Langendorff-perfused mouse hearts
[5] = 1 µmol/L, 30 min ischemia, 40 min reperfusion

CCOc1ccc(Cc2cc([C@@H]3O[C@H](CO)[C@@H](O)[C@H](O)[C@H]3O)ccc2Cl)cc1 [dapagliflozin]
Effect on peak-INa (human Nav1.5 (WT) [1]): little inhibitory effect
IC50 (human Nav1.5 (WT) [2]): 580 nM

OC[C@H]1O[C@@H](c2ccc(Cl)c(Cc3ccc(O[C@H]4CCOC4)cc3)c2)[C@H](O)[C@@H](O)[C@@H]1O [empagliflozin]
Effect on late-INa [3]: did not significantly alter
Effect on peak current [3]: did not significantly alter
Effect on total sodium current [3]: did not significantly alter
Effect on late-INa [4]: significantly reduced
Effect on peak current [4]: did not affect
Effect on total current (area under the curve) [4]: significantly reduced
Effect on late component of R1623Q current (human Nav1.5 R1623Q): significantly reduced
Effect on peak component of R1623Q current (human Nav1.5 R1623Q): significantly reduced
Activation V50 after drug (human Nav1.5 R1623Q; R1623Q currents): –43.3 mV
Inactivation V50 after drug (human Nav1.5 R1623Q; R1623Q currents): –97.5 mV
Effect on peak current of ΔKPQ (human Nav1.5 ΔKPQ; data not shown): did not inhibit
Steady-state late-INa after drug (human Nav1.5 ΔKPQ; ≈2% before drug): ≈ 1 % of peak current amplitude
Reduction of the occurrence of veratridine-induced spontaneous transients (mouse cardiomyocytes; 1 µmol/L, 20 nmol/L veratridine, 1 Hz field stimulation): 46%
Effect on calcium transients in vehicle control-treated cardiomyocytes (mouse cardiomyocytes; no veratridine, data not shown): no observable effect
Inhibition of reverse-mode NCX1.1 (human NCX1.1): no significant inhibition
Activation of TXNIP after ischemia-reperfusion (NLRP3 inflammasome; [5]): complete prevention
Activation of the NLRP3 inflammasome after ischemia-reperfusion (NLRP3 inflammasome; [5]): complete prevention
Reperfusion functional recovery (LVDP) (isolated mouse hearts; [5]): improved
Frequency dependence of peak- and late-INa inhibition (human Nav1.5 (WT) [1]; 1 µmol/L, stimulation frequencies 0.2–3 Hz): no significant differences
Effect on H2O2-induced late-INa in WT channels (human Nav1.5 (WT) [1]; 10 µmol/L): significantly inhibited
Effect on H2O2-induced late-INa (human Nav1.5 (WT) [1]; 1 and 10 µmol/L): significantly inhibited
Half-activation voltage (V50) after drug (human Nav1.5 (WT) [1]; WT currents, 10 µmol/L): –42.4 mV
Effect on peak-INa (human Nav1.5 (WT) [1]): little effect
IC50 (human Nav1.5 (WT) [2]): 790 nM

CCN(CC)CC(=O)Nc1c(C)cccc1C [lidocaine]
Effect on incidence of veratridine-induced spontaneous transients (mouse cardiomyocytes): significantly reduced

COc1ccccc1OCC(O)CN1CCN(CC(=O)Nc2c(C)cccc2C)CC1 (centres unmarked) [ranolazine]
Effect on incidence of veratridine-induced spontaneous transients (mouse cardiomyocytes; 10 µmol/L, 20 nmol/L veratridine): significantly reduced

NC1=N[C@H](O)[C@H]2[C@H]3O[C@]4(O)O[C@@H]([C@@H](O)[C@@]2(N1)[C@@H]4O)[C@]3(O)CO [tetrodotoxin]
Activation of TXNIP after ischemia-reperfusion (NLRP3 inflammasome): complete prevention
Activation of the NLRP3 inflammasome after ischemia-reperfusion (NLRP3 inflammasome): complete prevention
Reperfusion functional recovery (LVDP) (isolated mouse hearts): improved
Sensitivity of H2O2-induced persistent inward current (late-INa) (human Nav1.5 (WT) [1]): sensitive

COc1ccc(C(=O)O[C@H]2CC[C@@]3(C)[C@@H]4CC[C@H]5[C@]6(O)C[C@H](O)[C@@]7(O)[C@@H](CN8C[C@@H](C)CC[C@H]8[C@@]7(C)O)[C@]6(O)C[C@@]53O[C@]24O)cc1OC [veratridine]
Induction of late-INa activity and spontaneous calcium transients (mouse cardiomyocytes; 20 nmol/L, pilot experiments): induces late-INa activity

canagliflozin
Effect on peak-INa (human Nav1.5 (WT) [1]): little inhibitory effect
IC50 (human Nav1.5 (WT) [1]; read-out: IC50 for inhibition of H2O2-induced late-INa, recombinant human Nav1.5 in HEK293T cells, late-INa induced by 30 µmol/L H2O2): 1260 nM

— publication PMC8154177 (Circulation, 2021)
